Reference: patent US11254652B2, “Crystalline forms of N-(4-(4-(cyclopropymethyl)piperazine-1-carbonyl)phenyl)quinoline-8-sulfonamide” (Agios Pharmaceuticals, Inc., priority 2017, dated 2022)
≈ marks a conversion by molar mass, not a printed value. Where a name gives a salt, the structure may show the parent alone. Read-outs that look alike come from different tables or passages of the source.

How the values were obtained:
[1] = Solubility in water and simulated fluids at 37° C. (slurry, HPLC; XRPD of residual solid); assay type: physicochemical; details: values based on hemi-sulfate sesqui-hydrate salt, hemisulfate salt
Description: Solubility of Patterns A, B and D were measured in water. The solids were slurried in the fluids for two days and at 37° C. The supernatant was syringe filtered and used for HPLC analysis. For Patterns A and D the solubility measurement was repeated and the sample was taken after 1 hr slurry. A calibration curve was developed using Pattern A. This was not assay corrected and therefore the solubility values are based on the hemi-sulfate, sesqui-hydrate salt.
Both Patterns B and D converted to Pattern A after two days slurry. Pattern D also converted to Pattern A within 1 hour slurry in Fasted state simulated gastric fluid (FaSSGF) or water. […] This could be because of the conversion of Patterns B and D to Pattern A. The solubility data and the resulting XRPD Pattern after the measurement are reported in Table 21.

[2] = Dynamic Vapor Sorption (DVS); assay type: physicochemical; details: hemisulfate salt; for moisture picked up in DVS: 2% to 95% relative humidity, temperature not stated; for XRPD after DVS: Form A: DVS at 25° C. and 40° C.
Description: Dynamic Vapor Sorption (DVS) was done using a DVS Intrinsic 1. The sample is loaded into a sample pan and suspended from a microbalance. A typical sample mass for DVS measurement is 25 mg. Nitrogen gas bubbled through distilled water provides the desired relative humidity. A typical measurement comprises the steps: • 1. Equilibrate at 50% RH • 2. 50% to 2%. (50%, 40%, 30%, 20%, 10% and 2%) • a. Hold minimum of 5 mins and maximum of 60 minutes at each humidity. The pass criteria is less than 0.002% change • 3. 2% to 95% (2%, 10%, 20%, 30%, 40%, 50%, 60%, 70%, 80%, 90%, 95%) • b. Hold minimum of 5 mins and maximum of 60 minutes at each humidity. The pass criteria is less than 0.002% change • 4. 95% to 2% (95%, 80%, 70%, 60%, 50%, 40%, 30%, 20%, 10%, 2%) • c. Hold minimum of 5 mins and maximum of 60 minutes at each humidity. The pass criteria is less than 0.002% change • 5. 2% to 50% (2%, 10%, 20%, 30%, 40%, 50%) • d. Hold minimum of 5 mins and maximum of 60 minutes at each humidity. The pass criteria is less than 0.002% change
(§1) The water content by Karl Fisher was about 5.3%. […] A DVS isotherm taken at 40° C. was essentially the same as the one at 25° C. […] Humidity test was conducted on Form A with exposure to 11%, 48%, and 75% relative humidity at 40° C. for 2 weeks followed by XRPD analysis. […] Crystallographic data for Form A is as follows:
Form B tends to hold substantial amount of solvent.
(§2) Form D was determined to be anhydrous with a melting peak at 239° C. See e.g., FIG. 9. DVS of Pattern D was performed and solid picked up about 2% moisture from 2% to 95% relative humidity.

[3] = Humidity / desiccant exposure test followed by XRPD analysis; assay type: physicochemical; details: one week exposure to 75% relative humidity at 40° C.
Description: FIG. 5 (i) depicts X-ray powder diffraction pattern (XRPD) overlay for crystalline hemisulfate salt Form A and after exposure to 11%, 48%, and 75% relative humidity and 40° C. for two weeks. […] FIG. 5 (ii) depicts XRPD overlay for crystalline hemisulfate salt Form A and after exposure to phosphorus pentoxide (P2O5) granules at room temperature and 50° C. for one week, as well as ambient temperature in a vial for 24 hrs.
as §1, §2

[4] = Pharmacokinetic evaluation after single PO suspension dose; assay type: in vivo, Sprague-Dawley rat; details: for AUC 0-last / Cmax: PO 200 mg/kg (free base equivalent), suspension in 0.5% methyl-cellulose, male Sprague-Dawley rats, n=6, plasma, 200 mg/kg; for AUC fold higher compared to crystalline free-base of Compound 1 / Cmax fold higher compared to crystalline free-base of Compound 1: PO suspension 200 mg/kg, fasted male Sprague-Dawley rats
Description: Single dose in suspension using Crystalline Form A micronized and unmicronized, and crystalline free base of Compound 1 were administered to male Sprague-Dawley rat at 200 mg/kg. Blood samples were collected in the presence of K2EDTA, and were centrifuged to obtain plasma. The plasma was then analyzed for these compounds by LC/MS.
All animals involved in the dosing schedule were weighted and assigned numbers. All suspension formulations were freshly made prior use. Each solution was prepared at 40 mg/mL in 0.5% methyl-cellulose solution in water. The tubes were vortex for 2 min and sonicate for 30 min to achieve a white homogenous suspension.
All animals (n=6/group) were dosed orally in a volume of 5 mL/kg. Following dosing, each rat was bled at each of the designated time points. Blood samples were collected from the tail vain. Blood aliquots (150 μl) were collected in tubes coated with K2EDTA, mixed gently then kept on ice and centrifuged at 2,000 g for 5 minutes at 4° C., within 15 min of collection. The plasma layer was collected and maintained frozen at −70° C. until further processing.
Bioanalytical quantitation using HPLC/triple quadruple mass spectrometry (HPLC-MS) was performed. Plasma concentrations and T½ were calculated and reported.
A 1 mg/mL standard solution in DMSO:methanol (20:80, v/v) was diluted in 50 fold and subsequently serial diluted in 50% methanol water. Aliquots (10 μl) of the serial dilutions were mixed with 190 ul of control plasma for use as a standard curve. Plasma samples (50 μl) and standard samples (non-diluted) were diluted 10× with ice cold acetonitrile containing 40 ng/ml dexamethasone as internal standard. Acetonitrile precipitated samples and standards were vortexed at 5 g for 2 min (IKA vortex), then centrifuged at 5000 g for 10 min.
For 10-fold dilution standard samples: an aliquot of 5 μL sample was added with 45 μL control plasma to obtain the diluted samples. If a 50-fold dilution standard sample was required: an aliquot of 10 μL 10-fold diluted sample was added with 40 μL blank plasma to obtain the final diluted samples. Then, the exaction procedure for diluted samples was same as those for non-diluted samples.
Samples and standards (10 μl) were injected into the LC-MS system, as described below. Concentrations of dose solutions were reported in mg/mL.
LC: 7.5 μl of each sample and standard were injected onto a Waters BEH C18 (2.1×50 mm, 1.7 μm, maintained at 60° C.) column at 0.6 mL/min by an UPLC. The column was equilibrated at 10% acetonitrile. Compounds were eluted with a gradient to 95% acetonitrile. All mobile phase contained 0.025% (v/v) formic acid with 1 mM ammonium acetate.
MS: Column eluent was analyzed by electrospray ionization into a triple quadruple mass spectrometer system. Eluent composition was analyzed for ion pair specifics to the internal standard and the analyte respectively.
Experimental samples were compared with standard curve samples to determine compound concentrations. Average compound concentrations (in ng/mL±standard deviation) were reported for each time-point. […] PK analysis was performed in Phoenix Winnonlin; Cmax were determined as the maximum average concentration observed at a given point, the area under the curve (AUC) was reported for t0 to tlast ours.

[5] = Solubility in phosphate buffer pH7.4; assay type: physicochemical
[6] = Solubility measurements by gravimetric method in solvents at 23° C. and 50° C.; assay type: physicochemical; details: non-crystalline freebase; for solubility at 2 days: organic solvent or mixture, thermodynamic from solid, read-out: Solubility
Description: Solubility measurements were done by gravimetric method in 20 different solvents at two temperatures (23° C. and 50° C.). About 20-30 mg of Form A, the synthesis of which is described below, was weighed and 0.75 mL solvent was added to form a slurry. The slurry was then stirred for two days at the specified temperature. The vial was centrifuged and the supernatant was collected for solubility measurement through gravimetric method. The saturated supernatant was transferred into pre-weighed 2 mL HPLC vials and weighed again (vial+liquid). The uncapped vial was then left on a 50° C. hot plate to slowly evaporate the solvent overnight. The vials were then left in the oven at 50° C. and under vacuum to remove the residual solvent so that only the dissolved solid remained. The vial was then weighed (vial+solid). From these three weights; vial, vial+liquid and vial+solid; the weight of dissolved solid and the solvent were calculated. Then using solvent density the solubility was calculated as mg solid/mL of solvent.
20-30 mg of Form A was weighed into 2 mL vial and 500 μL MeOH solvent system as outlined in the table was added. If dissolved, more solids were added to form the slurry. The slurries were then stirred for two days. The vials were centrifuged and the supernatant was collected for solubility measurement through gravimetric method by evaporation at 50° C. XRPD analysis was conducted on the solid after filtration of the slurries.
For the sake of comparison, the solubility of Compound 1, i.e., the non-crystalline freebase, was also measured in two solvent systems to see the effect of water.

What does the source list for `O=C(c1ccc(NS(=O)(=O)c2cccc3cccnc23)cc1)N1CCN(CC2CC2)CC1` [Form D, N-(4-(4-(cyclopropylmethyl)piperazine-1-carbonyl)phenyl)quinoline-8-sulfonamide hemisulfate salt]?
Solubility ([1]; FaSSGF, slurry time 1 hr): 5.43 mg Solid/mL solvent; Solubility ([1]; FaSSGF, slurry time 2 days, listed as D): 5.94 mg Solid/mL solvent; Solubility ([1]; FaSSIF, slurry time 2 days, listed as D): 3.49 mg Solid/mL solvent; Solubility ([1]; Water, slurry time 1 hr): 2.62 mg Solid/mL solvent; Solubility ([1]; Water, slurry time 2 days, listed as D): 2.71 mg Solid/mL solvent; moisture picked up in DVS ([2]; listed as Pattern D): about 2%; XRPD after DVS ([2]; listed as Pattern D): remained unchanged; form after humidity exposure [3]: did not change the form

Which AUC 0-last ([4]; hemisulfate sesquihydrate) does the source give for `O=C(c1ccc(NS(=O)(=O)c2cccc3cccnc23)cc1)N1CCN(CC2CC2)CC1` [Crystalline Form A (unmicronized), 1-(cyclopropylmethyl)-4-(4-(quinoline-8-sulfonamido)benzoyl)piperazin-1-ium hemisulfate sesquihydrate] here?
Its AUC 0-last is 356 ± 82.9 µg·h/mL.

And the Cmax ([4]; hemisulfate sesquihydrate)?
Its Cmax is 29800 ± 5300 ng/mL.

And the “AUC fold higher compared to crystalline free-base of Compound 1” value ([4]; hemisulfate sesquihydrate)?
The value was 2.7 fold.

And the “Cmax fold higher compared to crystalline free-base of Compound 1” value ([4]; hemisulfate sesquihydrate)?
Its value is 1.6 fold.

And the “solubility compared to crystalline free-base of Compound 1” value [5]?
Its value is “more soluble”.

For `O=C(c1ccc(NS(=O)(=O)c2cccc3cccnc23)cc1)N1CCN(CC2CC2)CC1` [Form B, N-(4-(4-(cyclopropylmethyl)piperazine-1-carbonyl)phenyl)quinoline-8-sulfonamide hemisulfate salt], which Solubility ([1]; FaSSGF, slurry time 2 days, listed as B) is on record?
Its Solubility is 6.53 mg Solid/mL solvent.

And the Solubility ([1]; FaSSIF, slurry time 2 days, listed as B)?
Its Solubility is 0.20 mg Solid/mL solvent.

And the Solubility ([1]; Water, slurry time 2 days, listed as B)?
Its Solubility is 3.02 mg Solid/mL solvent.

What about the “moisture picked up in DVS” value [2] of the same compound?
The value was “about 14%”.

And the “XRPD after DVS” value [2]?
The value was “converted to a different Form K”.

Which solubility at 2 days ([6]; MeOAc:MeOH (1:1) and 2.5 vol % water, 23 °C, MeOAc:MeOH (1:1) and 2.5 vol % water, 23° C.) does the source give for `O=C(c1ccc(NS(=O)(=O)c2cccc3cccnc23)cc1)N1CCN(CC2CC2)CC1` [Compound 1, N-(4-(4-(cyclopropylmethyl)piperazine-1-carbonyl)phenyl)quinoline-8-sulfonamide] here?
Its solubility at 2 days is 15 mg/mL (≈ 33.3 mM).

What about the solubility at 2 days ([6]; MeOAc:MeOH (1:1) and 2.5 vol % water, 50 °C, MeOAc:MeOH (1:1) and 2.5 vol % water, 50° C.) of the same compound?
Its solubility at 2 days is 36 mg/mL (≈ 79.9 mM).

And the solubility at 2 days ([6]; MeOAc:MeOH (1:1), 23 °C, MeOAc:MeOH (1:1), 23° C.)?
The solubility at 2 days was 15 mg/mL (≈ 33.3 mM).

What about the solubility at 2 days ([6]; MeOAc:MeOH (1:1), 50 °C, MeOAc:MeOH (1:1), 50° C.) of the same compound?
The solubility at 2 days was 34 mg/mL (≈ 75.5 mM).

What about the “impact of 2.5 vol % water on solubility” value ([6]; MeOAc:MeOH (1:1)) of the same compound?
The value was “did not have any impact”.

With `O=C(c1ccc(NS(=O)(=O)c2cccc3cccnc23)cc1)N1CCN(CC2CC2)CC1` [Crystalline free-base of Compound 1, N-(4-(4-(cyclopropylmethyl)piperazine-1-carbonyl)phenyl)quinoline-8-sulfonamide] as the compound, how does the AUC 0-last [4] read?
Its AUC 0-last is 125 ± 85.8 µg·h/mL.

And the Cmax [4]?
Its Cmax is 17900 ± 3600 ng/mL.

Which AUC 0-last ([4]; hemisulfate sesquihydrate) does the source give for `O=C(c1ccc(NS(=O)(=O)c2cccc3cccnc23)cc1)N1CCN(CC2CC2)CC1` [Crystalline Form A (micronized), 1-(cyclopropylmethyl)-4-(4-(quinoline-8-sulfonamido)benzoyl)piperazin-1-ium hemisulfate sesquihydrate] here?
The AUC 0-last was 478 ± 87.9 µg·h/mL.

What about the Cmax ([4]; hemisulfate sesquihydrate) of the same compound?
The Cmax was 36700 ± 6800 ng/mL.

What about the “AUC fold higher compared to crystalline free-base of Compound 1” value ([4]; hemisulfate sesquihydrate) of the same compound?
The value was 3.8 fold.

What about the “Cmax fold higher compared to crystalline free-base of Compound 1” value ([4]; hemisulfate sesquihydrate) of the same compound?
Its value is 2 fold.

And the “solubility compared to crystalline free-base of Compound 1” value [5]?
Its value is “more soluble”.
